Assay results reported in patent US20040106671A1, “Remedies for vesical hyperesthesia” (priority 2001, published 2004).

Experiments:
[1] = test system: Hypersensitivity of Bladder with Cystitis; assay: Inhibitory activity on hypersensitivity of bladder with cystitis (cystometry, xylene-induced cystitis); type: in vivo, Male SD rats; settings: oral, rats with xylene-induced cystitis; for pre-micturition contractions (amplitude, relative value, value before administration defined as 100): 0.05 mg/mL suspension at 2 mL/kg, average ± standard error, n = 13
Description: The experiment was carried out by referring to the method of Morikawa, et al. [Jpn. J. Pharmacol., Vol. 52, pp. 587-595 (1990)]. Male SD rats weighing from 250 to 400 g (supplied by Japan SLC) were used in the test. Five to seven animals of these rats were put in each metal cage and reared by allowing them to freely take commercially available chow and water, in an animal room at room temperature between 19 and 25° C. and humidity between […] and 70% under illumination for 12 hours (from 7:00 a.m. to 7:00 p.m.) per day. The rats were subjected to bladder catheterization. Under anesthesia with pentobarbital sodium, the bladder was exposed by midline incision of the abdomen. […] The bladder catheter was fixed with a surgical silk ligature and indwelled. The other end of the catheter was exposed subcutaneously from the back of the neck, plugged and then fixed to the skin with a surgical thread. Two to three days after the bladder catheterization, a cystometry test was performed. The rats were put in a Bollman cage (Natsume Seisakusho Co., Ltd.) and a three-way cock was connected to the bladder catheter, one end of the cock was connected to a pressure transducer (Nihon Kohden Corp.) and the other end was connected to a 50-mL syringe (Terumo Corp.) arranged to an infusion pump (Harvard Apparatus, Inc.) for physiological saline infusion. The intravesical pressure signal from the pressure transducer was amplified with a strain pressure amplifier (AP-601G, Nihon Kohden Corp.) connected thereto, and was recorded on a thermal array recorder (RTA-1200, Nihon Kohden Corp.) via a polygraph system (RMP-6008, Nihon Kohden Corp.) containing the above amplifier. After the completion of the preparation for the measurement, a room temperature physiological saline was continuously infused into the bladder at a flow rate of 3 mL/h, and the intravesical pressure was measured to observe micturition intervals. After the micturition intervals became constant, the intravesical pressure waveform was recorded for one hour. Then, saline infusion was stopped, and 0.5 mL of xylene (Wako Pure Chemical Industries, Ltd.) was infused into the bladder through the catheter and was removed about 10 seconds later to cause cystitis. After 30 minutes, the continuous infusion of saline was started again and the intravesical pressure was monitored for about one hour to obtain the value before dosing. The test compound was suspended in a 0.5 w/v % aqueous solution of methylcellulose at a concentration of 0.05 mg/mL. The suspension or a vehicle was orally administered to the animals at a volume of 2 mL/kg. After the administration of the test compound, the intravesical pressure waveform was recorded for 4.5 hours. […] Pre-micturition contraction was measured as an index of bladder hypersensitivity. The values of pre-micturition contractions were read from the intravesical pressure waveform recorded on a chart paper using a digitizer (KD3220, Graphtec Corporation) controlled by a computer (PC-9801NS/R, NEC), and saved as a WJ2 file on Lotus 1-2-3 R2.5J (Lotus). […] The amplitude of pre-micturition contractions was expressed as a relative value when the value before the drug administration that was defined as 100, and the average ±standard error was calculated for each group.

dd male mice = assay: Acute toxicity test; type: in vivo; settings: oral administration, mortality on the seventh day after the administration
Description: The test compound was administered orally or intraperitoneally to 3 animals per group of dd male mice (body weight: 20±1 g). The minimum lethal dose (MLD) value was obtained by observing mortality on the seventh day after the administration.

In the case of `C[C@](O)(C(=O)Nc1cccc2c1C(=O)c1sccc1CS2(=O)=O)C(F)(F)F` [Compound 1, (S)-(+)-N-(5,5-dioxido-10-oxo-4,10-dihydrothieno[3,2-c][1]benzothiepin-9-yl)-3,3,3-trifluoro-2-hydroxy-2-methylpropanamide], the “pre-micturition contractions (amplitude, relative value, value before administration defined as 100)” value ([1]; After 1 hour) is reported as 71.5 ± 6.5%, the “pre-micturition contractions (amplitude, relative value, value before administration defined as 100)” value ([1]; After 2 hours) is reported as 64.7 ± 6.8 % and the “pre-micturition contractions (amplitude, relative value, value before administration defined as 100)” value ([1]; After 3 hours) is reported as 61.7 ± 6.8 %. For the same compound, the “pre-micturition contractions (amplitude, relative value, value before administration defined as 100)” value ([1]; After 4 hours) was 61.6 ± 5.4 %, the “effect on pre-micturition contractions (in words)” value ([1]; Test Example 1) was “inhibited pre-micturition contractions” and the “minimum lethal dose (MLD)” value (dd male mice) was over 1000 mg/kg.
